Reference: patent publication US20250114356A1, “INDAZOLE BASED COMPOUNDS AND ASSOCIATED METHODS OF USE” (Arvinas Operations, Inc., priority 2020, published 2025)

Experiments:
G2019S LRRK2 = molecular target: T1, G2019S LRRK2 (Homo sapiens, UniProt Q5S007, G2019S); assay: LRRK2 degradation assay, G2019S LRRK2-HiBit expressed from plasmid in HEK293 cells; type: cell-based; details: HEK293 cells transfected with HiBit-tagged G2019S LRRK2, 24 hours compound incubation
T1 construct: expressed in transfected cells; host or cells: HEK293 (ATCC CRL-1573), transient transfection, ubiquitin promoter
Procedure: (§1) The assay measures the degradation of wildtype and G2019S LRRK2 tagged with a HiBit tag on the C-terminus of the protein that was expressed from a mammalian expression vector, driven by the ubiquitin promoter in HEK293 cells. Each compound dose-response was repeated on two separate days, on three separate plates each day.
(§2) Plasmid Preparation. Transfection mixes were assembled as follows and incubated for 30 minutes at room temperature. In a 15 mL tube, 5.25 mL Opti-MEM (no additions) was mixed with 17 μL Firefly Luciferase plasmid at 1 μg/μL and 158 μL WT plasmid DNA at 1 μg/μL (175 μg total DNA) were mixed by flicking. In a new 15 mL tube, 5.25 mL OptiMEM was mixed with 17 μL Firefly Luciferase plasmid at 1 μg/μL and 158 μL G2019S plasmid DNA at 1 μg/μL (175 μg total DNA) were mixed by flicking. X-tremeGene HP was mixed thoroughly using a vortex. Next, 175 μL was added to each tube and flicked to mix. Both tubes were left to incubate for 30 minutes at room temperature.
(§3) While the transfection mixes were incubating, HEK293 cells (acquired from ATCC; ATCC CRL-1573) were harvested with trypsin. Once cells are detached, the cells were resuspended in 12 mL OptiMEM+5% FBS and transferred to a 50 mL tube. The cells were mixed well and counted. Using OptiMEM+5% FBS, the cells were diluted in two 250 mL conical tubes at 0.71×10^6 cells/mL in 70 mL. One tube was labeled “WT” and the other “G2019S”. The WT and G2019S transfection mixes were added dropwise to the corresponding 250 mL tubes. The tubes were mixed first by pipetting then by swirling. The tubes were incubated at room temperature for at least 5 minutes.
(§4) Each tube was swirled before dispensing and after every three plates. Seventy microliters of cells were dispensed with WT or G2019S DNA to seven plates each. Three plates of each were tested with compound plate one (preparation described below) and three plates of each were tested with compound plate two (preparation described below). The first plate from each set served as a “prime” plate and was not used to test compounds. Each plate was incubated in the hood for 10 minutes before placing in the 37° C. incubator for 24 hours.
(§5) Preparation of Compound and Assay Plates. Two compound plates were made using 96 well polypropylene plates. Compounds were made up at 10 mM and were diluted to 1 mM in 30 μL. Each dose response curve included a well of DMSO, as a negative control and for normalization, and a well of 0.5 μM of Exemplary Compound 4 as a positive control. In addition to seven test compounds, each plate also included a dose response of Exemplary Compound 4. The compound plates were spun down along at 1200 rpm for 2 minutes.
(§6) The two compound plates were then mixed and 2 μL was diluted in intermediate plates having 248 μL of Opti-Mem in each well. Next, 10 μL diluted compounds from the intermediate plates were added to each test plate (three WT and three G2019S plates per compound plate for a total of 12 assay plates). The plates were incubated for 24 hours at 37° C.
(§7) All assay plates and all Nano-Glo Dual-Luciferase Reporter Assay System components (except for the DLR substrate) were equilibrated to room temperature. Next, the luciferase buffer was mixed with the lyophilized amber bottle until fully dissolved, and 75 μL of the luciferase mixture was added to each well of each assay plate. The assay plates were incubated for 10 minutes at room temperature with shaking for at least 5 minutes, and then read on a plate reader.
(§8) Developing Plates and Analyzing Data. One milliliter of DLR substrate and 1 mL LgBiT Protein were added to the Stop and Glo buffer, and 75 μL of the mixture was added to each well of each plate. Optically clear seals were added to each plate and each plate was incubated for 20 minutes with shaking for at least 10 minutes, and then read on a plate reader. […]

wildtype LRRK2 = molecular target: T2, wildtype LRRK2 (Homo sapiens, UniProt Q5S007); assay: LRRK2 degradation assay, wildtype LRRK2-HiBit expressed from plasmid in HEK293 cells; type: cell-based; details: HEK293 cells transfected with HiBit-tagged wildtype LRRK2, 24 hours compound incubation; for Dmax: read-out: **WT Dmax (%); for DC50: read-out: *WT DC50
T2 construct: expressed in transfected cells; host or cells: HEK293 (ATCC CRL-1573), transient transfection, ubiquitin promoter
Procedure: as §1, §2, §3, §4, §5, §6, §7, §8

T1 sequence (Q5S007 whole entry G2019S): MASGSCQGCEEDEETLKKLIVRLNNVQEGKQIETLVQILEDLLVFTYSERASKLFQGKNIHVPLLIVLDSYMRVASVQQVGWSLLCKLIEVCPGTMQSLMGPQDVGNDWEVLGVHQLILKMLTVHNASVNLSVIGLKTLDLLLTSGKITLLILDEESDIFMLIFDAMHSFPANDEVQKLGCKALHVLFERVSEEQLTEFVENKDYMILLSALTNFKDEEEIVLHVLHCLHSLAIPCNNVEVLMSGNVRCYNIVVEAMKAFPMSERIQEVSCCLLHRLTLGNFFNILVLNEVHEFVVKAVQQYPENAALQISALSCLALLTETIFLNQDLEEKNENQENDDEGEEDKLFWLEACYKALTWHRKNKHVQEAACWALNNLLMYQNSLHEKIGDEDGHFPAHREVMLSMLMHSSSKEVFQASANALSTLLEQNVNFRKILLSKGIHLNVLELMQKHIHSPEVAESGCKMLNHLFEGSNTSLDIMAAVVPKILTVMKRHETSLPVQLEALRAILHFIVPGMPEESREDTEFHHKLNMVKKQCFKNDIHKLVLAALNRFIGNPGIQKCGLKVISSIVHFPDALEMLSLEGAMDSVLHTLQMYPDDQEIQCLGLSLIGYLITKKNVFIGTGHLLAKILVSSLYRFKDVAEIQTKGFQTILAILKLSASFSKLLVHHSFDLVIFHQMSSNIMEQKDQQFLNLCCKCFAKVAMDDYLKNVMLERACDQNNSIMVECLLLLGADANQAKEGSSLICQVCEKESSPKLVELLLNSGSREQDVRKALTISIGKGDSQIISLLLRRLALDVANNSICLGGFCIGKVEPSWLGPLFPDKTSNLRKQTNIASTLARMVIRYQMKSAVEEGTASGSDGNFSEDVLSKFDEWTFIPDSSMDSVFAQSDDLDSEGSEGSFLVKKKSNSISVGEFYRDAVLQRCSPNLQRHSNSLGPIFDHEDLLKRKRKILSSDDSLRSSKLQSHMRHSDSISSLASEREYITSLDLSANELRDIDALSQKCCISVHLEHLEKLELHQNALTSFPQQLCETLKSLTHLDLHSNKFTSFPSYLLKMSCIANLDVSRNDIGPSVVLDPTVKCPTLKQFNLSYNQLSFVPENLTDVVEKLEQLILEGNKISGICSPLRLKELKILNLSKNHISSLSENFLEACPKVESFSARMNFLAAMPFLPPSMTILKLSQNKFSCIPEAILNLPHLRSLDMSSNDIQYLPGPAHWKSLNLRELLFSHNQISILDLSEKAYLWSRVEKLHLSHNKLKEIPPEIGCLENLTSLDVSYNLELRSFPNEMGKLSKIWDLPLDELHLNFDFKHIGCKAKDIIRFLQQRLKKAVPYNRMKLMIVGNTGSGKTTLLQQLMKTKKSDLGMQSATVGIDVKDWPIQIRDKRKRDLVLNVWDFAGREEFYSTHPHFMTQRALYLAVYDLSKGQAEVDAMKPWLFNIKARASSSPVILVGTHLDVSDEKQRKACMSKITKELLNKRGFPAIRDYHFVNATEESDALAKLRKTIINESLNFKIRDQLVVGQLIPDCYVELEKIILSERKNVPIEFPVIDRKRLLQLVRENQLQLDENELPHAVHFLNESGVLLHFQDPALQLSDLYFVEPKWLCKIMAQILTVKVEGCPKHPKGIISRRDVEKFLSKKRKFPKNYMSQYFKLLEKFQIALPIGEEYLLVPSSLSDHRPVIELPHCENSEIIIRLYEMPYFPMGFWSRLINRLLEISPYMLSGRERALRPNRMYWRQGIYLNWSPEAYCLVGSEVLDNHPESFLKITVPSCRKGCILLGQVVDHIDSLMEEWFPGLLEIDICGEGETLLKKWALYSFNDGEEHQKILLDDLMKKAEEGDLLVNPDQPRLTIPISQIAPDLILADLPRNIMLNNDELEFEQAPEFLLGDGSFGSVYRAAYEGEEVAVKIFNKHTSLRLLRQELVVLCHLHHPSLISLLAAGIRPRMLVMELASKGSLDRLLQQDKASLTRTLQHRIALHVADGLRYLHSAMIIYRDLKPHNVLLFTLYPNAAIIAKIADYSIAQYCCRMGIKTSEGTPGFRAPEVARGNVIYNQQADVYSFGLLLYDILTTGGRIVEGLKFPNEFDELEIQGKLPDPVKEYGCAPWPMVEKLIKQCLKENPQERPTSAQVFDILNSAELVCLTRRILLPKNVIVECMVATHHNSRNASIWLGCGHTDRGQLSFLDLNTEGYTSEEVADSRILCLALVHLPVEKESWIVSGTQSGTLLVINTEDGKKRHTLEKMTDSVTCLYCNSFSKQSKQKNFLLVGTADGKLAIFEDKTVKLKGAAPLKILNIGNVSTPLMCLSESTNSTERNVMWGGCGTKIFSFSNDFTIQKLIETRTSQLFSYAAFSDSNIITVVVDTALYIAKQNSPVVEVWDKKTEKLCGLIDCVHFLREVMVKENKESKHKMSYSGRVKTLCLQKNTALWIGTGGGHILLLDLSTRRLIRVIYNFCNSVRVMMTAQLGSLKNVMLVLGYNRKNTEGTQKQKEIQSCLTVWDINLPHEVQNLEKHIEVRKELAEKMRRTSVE
T2 sequence (Q5S007 whole entry): as the sequence (Q5S007 whole entry G2019S) above, with S2019G counted along it

SMILES	DC50 (G2019S LRRK2)	Dmax (G2019S LRRK2)	Dmax (wildtype LRRK2)	DC50 (wildtype LRRK2)
C[C@H]1CN(c2cc(-c3n[nH]c4ccc(OC5(C)CC5)cc34)ncn2)CCN1CCOCCOCCOCCOc1ccc(C(=O)NC2CCC(=O)NC2=O)c(F)c1 (stereo partly drawn) [compound 13, N-(2,6-dioxopiperidin-3-yl)-2-fluoro-4-{2-[2-(2-{2-[(2S)-2-methyl-4-{6-[5-(1-methylcyclopropoxy)-1H-indazol-3-yl]pyrimidin-4-yl}piperazin-1-yl]ethoxy}ethoxy)ethoxy]ethoxy}benzamide]	10 to 50 nM	< 50%	< 50%	10 to 50 nM
CC(C)Oc1cc2c(-c3ccnc(N4CCN(CCOCCOCCOCCOc5ccc6c(c5)C(=O)N(C5CCC(=O)NC5=O)C6=O)[C@@H](C)C4)c3)n[nH]c2cc1F (stereo partly drawn) [compound 14, 2-(2,6-dioxopiperidin-3-yl)-5-{2-[2-(2-{2-[(2S)-4-{4-[6-fluoro-5-(propan-2-yloxy)-1H-indazol-3-yl]pyridin-2-yl}-2-methylpiperazin-1-yl]ethoxy}ethoxy)ethoxy]ethoxy}-2,3-dihydro-1H-isoindole-1,3-dione]	≥ 100 nM	50 to 70%	≥ 70%	≥ 100 nM
CC(C)Oc1cc2c(-c3cc(N4CCN(CCOCCOCCOCCOc5ccc6c(c5)C(=O)N(C5CCC(=O)NC5=O)C6=O)[C@@H](C)C4)ncn3)n[nH]c2cc1F (stereo partly drawn) [compound 15, 2-(2,6-dioxopiperidin-3-yl)-5-{2-[2-(2-{2-[(2S)-4-{6-[6-fluoro-5-(propan-2-yloxy)-1H-indazol-3-yl]pyrimidin-4-yl}-2-methylpiperazin-1-yl]ethoxy}ethoxy)ethoxy]ethoxy}-2,3-dihydro-1H-isoindole-1,3-dione]	≥ 100 nM	< 50%	< 50%	≥ 100 nM
C[C@H]1CN(c2cc(-c3n[nH]c4ccc(OC(C)(C)C)cc34)ncn2)CCN1CCOCCOCCOCCOc1ccc2c(c1)C(=O)N(C1CCC(=O)NC1=O)C2=O (stereo partly drawn) [compound 16, 5-{2-[2-(2-{2-[(2S)-4-{6-[5-(tert-butoxy)-1H-indazol-3-yl]pyrimidin-4-yl}-2-methylpiperazin-1-yl]ethoxy}ethoxy)ethoxy]ethoxy}-2-(2,6-dioxopiperidin-3-yl)-2,3-dihydro-1H-isoindole-1,3-dione]	≥ 100 nM	< 50%	< 50%	≥ 100 nM
C[C@H]1CN(c2cc(-c3n[nH]c4ccc(OC5(C)CC5)cc34)ncn2)CCN1CCOCCOCCOCCOc1ccc2c(c1)C(=O)N(C1(C)CCC(=O)NC1=O)C2=O (stereo partly drawn) [compound 19, 2-(3-methyl-2,6-dioxopiperidin-3-yl)-5-{2-[2-(2-{2-[(2S)-2-methyl-4-{6-[5-(1-methylcyclopropoxy)-1H-indazol-3-yl]pyrimidin-4-yl}piperazin-1-yl]ethoxy}ethoxy)ethoxy]ethoxy}-2,3-dihydro-1H-isoindole-1,3-dione]	10 to 50 nM	< 50%	< 50%	≥ 100 nM
CC(C)Oc1ccc2[nH]nc(-c3cc(N4CCN(CCOCCN5CCN(c6ccc7c(c6)C(=O)N(C6CCC(=O)NC6=O)C7=O)CC5)[C@@H](C)C4)ncn3)c2c1 (stereo partly drawn) [compound 22, 2-(2,6-dioxo-3-piperidyl)-5-[4-[2-[2-[(2S)-4-[6-(5-isopropoxy-1H-indazol-3-yl)pyrimidin-4-yl]-2-methyl-piperazin-1-yl]ethoxy]ethyl]piperazin-1-yl]isoindoline-1,3-dione]	10 to 50 nM	< 50%	< 50%	10 to 50 nM
CC(C)Oc1ccc2[nH]nc(-c3cc(N4CCN(CCN5CCN(CC6CCN(c7ccc8c(c7)C(=O)N(C7CCC(=O)NC7=O)C8=O)CC6)CC5)[C@@H](C)C4)ncn3)c2c1 (stereo partly drawn) [compound 26, 2-(2,6-dioxopiperidin-3-yl)-5-{4-[(4-{2-[(2S)-2-methyl-4-{6-[5-(propan-2-yloxy)-1H-indazol-3-yl]pyrimidin-4-yl}piperazin-1-yl]ethyl}piperazin-1-yl)methyl]piperidin-1-yl}-2,3-dihydro-1H-isoindole-1,3-dione]	10 to 50 nM	≥ 70%	≥ 70%	10 to 50 nM

The remaining lines, values ahead:

DC50 (G2019S LRRK2)	Dmax (G2019S LRRK2)	Dmax (wildtype LRRK2)	DC50 (wildtype LRRK2)	SMILES
< 10 nM	≥ 70%	≥ 70%	< 10 nM	CC1(Oc2ccc3[nH]nc(-c4cc(N5CCO[C@@H](CCOCCOCCOCCOc6ccc7c(c6)C(=O)N(C6CCC(=O)NC6=O)C7=O)C5)ncn4)c3c2)CC1 (stereo partly drawn) [compound 18, 2-(2,6-dioxopiperidin-3-yl)-5-{2-[2-(2-{2-[(2S)-4-{6-[5-(1-methylcyclopropoxy)-1H-indazol-3-yl]pyrimidin-4-yl}morpholin-2-yl]ethoxy}ethoxy)ethoxy]ethoxy}-2,3-dihydro-1H-isoindole-1,3-dione]
< 10 nM	50 to 70%	50 to 70%	< 10 nM	C[C@H]1CN(c2cc(-c3n[nH]c4ccc(OC5(C)CC5)cc34)ncn2)CCN1CCOCCN1CCN(c2ccc3c(c2)C(=O)N(C2CCC(=O)NC2=O)C3=O)CC1 (stereo partly drawn) [compound 20, 2-(2,6-dioxopiperidin-3-yl)-5-[4-(2-{2-[(2S)-2-mcthyl-4-{6-[5-(1-methylcyclopropoxy)-1H-indazol-3-yl]pyrimidin-4-yl}piperazin-1-yl]ethoxy}ethyl)piperazin-1-yl]-2,3-dihydro-1H-isoindole-1,3-dione]
< 10 nM	50 to 70%	≥ 70%	< 10 nM	C[C@@H]1CN(c2cc(-c3n[nH]c4ccc(OC5(C)CC5)cc34)ncn2)C[C@H](C)N1CCOCCN1CCN(c2ccc3c(c2)C(=O)N(C2CCC(=O)NC2=O)C3=O)CC1 (stereo partly drawn) [compound 21, 5-[4-(2-{2-[(2R,6S)-2,6-dimethyl-4-{6-[5-(1-methylcyclopropoxy)-1H-indazol-3-yl]pyrimidin-4-yl}piperazin-1-yl]ethoxy}ethyl)piperazin-1-yl]-2-(2,6-dioxopiperidin-3-yl)-2,3-dihydro-1H-isoindole-1,3-dione]
< 10 nM	50 to 70%	50 to 70%	< 10 nM	CC(C)Oc1ccc2[nH]nc(-c3cc(N4CCN(CCCCN5CCN(c6ccc7c(c6)C(=O)N(C6CCC(=O)NC6=O)C7=O)CC5)[C@@H](C)C4)ncn3)c2c1 (stereo partly drawn) [compound 23, 2-(2,6-dioxopiperidin-3-yl)-5-(4-{4-[(2S)-2-methyl-4-{6-[5-(propan-2-yloxy)-1H-indazol-3-yl]pyrimidin-4-yl}piperazin-1-yl]butyl}piperazin-1-yl)-2,3-dihydro-1H-isoindole-1,3-dione]
< 10 nM	≥ 70%	≥ 70%	< 10 nM	CC(C)Oc1ccc2[nH]nc(-c3cc(N4CCN(CC5CCN(CC6CCN(c7ccc8c(c7)C(=O)N(C7CCC(=O)NC7=O)C8=O)CC6)CC5)[C@@H](C)C4)ncn3)c2c1 (stereo partly drawn) [compound 25, 2-(2,6-dioxopiperidin-3-yl)-5-{4-[(4-{[(2S)-2-methyl-4-{6-[5-(propan-2-yloxy)-1H-indazol-3-yl]pyrimidin-4-yl}piperazin-1-yl]methyl}piperidin-1-yl)methyl]piperidin-1-yl}-2,3-dihydro-1H-isoindole-1,3-dione]
< 10 nM	≥ 70%	≥ 70%	< 10 nM	CC(C)Oc1ccc2[nH]nc(-c3cc(N4CCN(CCN5CCC(CN6CCN(c7ccc8c(c7)C(=O)N(C7CCC(=O)NC7=O)C8=O)CC6)CC5)CC4)ncn3)c2c1 (stereo not shown) [compound 27, 2-(2,6-dioxopiperidin-3-yl)-5-[4-({1-[2-(4-{6-[5-(propan-2-yloxy)-1H-indazol-3-yl]pyrimidin-4-yl}piperazin-1-yl)ethyl]piperidin-4-yl}methyl)piperazin-1-yl]-2,3-dihydro-1H-isoindole-1,3-dione]
